Patent US9944611B2, “Polymerizable resins containing a 1,3,5-hexahydro-1,3,5-triazine moiety, methods of making, and dental compositions containing the same” (DENTSPLY SIRONA INC., priority 2013, dated 2018)

Experiment: Solubility of hydroxy-terminated TAT derivatives in water/EtOH (1:1)
Assay type: physicochemical
From the text: A sample of each of the examples was then subjected to further characterization and testing, including by NMR, along with pure TAT. The results are summarized in Table 1, which illustrates, among other things, that the increased amounts of DEA improved the solubility: […]

## C=CC(=O)N1CN(C(=O)C=C)CN(C(=O)C=C)C1 [Parent Sample (TAT), 1,3,5-triacryloyl-hexahydro-1,3,5-triazine]
  Solubility in water/EtOH (1:1) @ 25% w/w: insoluble
